# Measured values from publication PMC5011342, “A high throughput drug screening assay to identify compounds that promote oligodendrocyte differentiation using acutely dissociated and purified oligodendrocyte precursor cells” (BMC Research Notes, 2016).
# Structures can show the parent of a compound that is named as a salt. Where two headings read alike, the source gives them in different places.
# Tests used:
# expanded OPCs = experiment: cells; conditions: for viability at 0.1 µM / viability at 1 µM / viability at 10 µM: Rattus norvegicus, 72 h
# Protocol: Having established a consistent assay for measuring OL differentiation in vitro, the next step was to utilize this assay to assess the ability of a wide array of compounds to promote OL differentiation. Prior to library screening, we first established the maximum non-toxic dose of each compound in the library. […] Therefore, we added each compound in the NIH clinical collection (NCC) library to OPCs at 10, 1, and 0.1 µM concentrations. Three days later, we assessed viability of the treated cells by measuring AlamarBlue fluorescence, a measure of cell viability (see “Methods” section). […] Appropriately, we established three sets of screening concentrations for library compounds: non-toxic compounds were tested at 10 and 2 µM, slightly toxic compounds (only toxic at 10 µM) were tested at 2 and 0.4 µM, and very toxic compounds were tested at 0.4 and 0.08 µM.
# OPCs were expanded in vitro by seeding into PDL-coated tissue culture flasks at 1000–2000 cells/cm^2 in differentiation media supplemented with 10 ng/ml PDGF-AA. Proliferating OPCs were fed every 2–3 days and supplemented with 2–3× concentration of PDGF as needed to prevent OPC differentiation. After 6–7 days of proliferation, OPCs were harvested by trypsinization, plated into PDL-coated 96-well Falcon plates and centrifuged at 200×g to facilitate cell attachment, survival, and even distribution of cells. Expanded OPCs were seeded in differentiation media at 10,000 cells/well and incubated for 2 h at 37 °C, 10 % CO2 prior to addition of compounds. The NCC library was diluted and added to cells at 10, 1, and 0.1 µM; each concentration was tested in quadruplicate. As a positive control for the induction of toxicity, 5 ng/ml tunicamycin was added to 8 wells in each plate. Three days later, a 1:10 dilution of alamarBlue® (AB) was added to each well and cells were incubated 4 h at 37 °C, 10 % CO2. AB fluorescence was measured using a PerkinElmer Victor II fluorescence microplate reader (PerkinElmer, Waltham, MA) with 560 nm excitation/590 nm emission filters. For library screening, the highest concentration of each compound was adjusted to a minimally toxic concentration based on this toxicity data. Compounds were additionally tested at a second concentration that was 1/5th of the top concentration. The final concentration of DMSO in each well was 0.1 %.
# [1] = tested on: acutely dissociated and purified rat OPCs; experiment: Acute OL differentiation assay (MBP expression/cell, immunofluorescent image quantification); assay type: cell-based; conditions: sheet "All OLga data"; for activation at 2 µM / activation at 10 µM / activation at 0.08 µM / activation at 0.4 µM: Rattus norvegicus; for activation at 0.08 µM: test compound at 0.08 uM, read-out: 0.08 uM (% Quet)
# How it was run: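 This acute differentiation assay used purified rat OPCs from postnatal day 6–7 pups, seeded into PDL/laminin-coated 96-well plates in differentiation medium lacking PDGF and FGF. Compounds were applied in quadruplicate after a 1–2 h preincubation at 37 °C, 10 % CO2, with 0.1 % DMSO negative and 40 ng/ml T3 positive controls in eight wells. After fixation on DIV4, anti-MBP immunofluorescence images yielded MBP expression/cell.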
# [2] = alamarBlue viability of expanded OPCs, compound at 0.1 µM, relative to DMSO control
# [3] = alamarBlue viability of expanded OPCs, compound at 1 µM, relative to DMSO control
# [4] = alamarBlue viability of expanded OPCs, compound at 10 µM, relative to DMSO control
# [5] = test compound at 2 uM, MBP expression relative to quetiapine, NCC library screen, read-out: 2 uM (% Quet)
# [6] = test compound at 10 uM, MBP expression relative to quetiapine, NCC library screen, read-out: 10 uM (% Quet)
# [7] = read-out: 0.1 µM (% DMSO), alamarBlue viability, NCC library compound at 0.1 µM, sheet "All Tox data"
# [8] = read-out: 1 µM (% DMSO), alamarBlue viability, NCC library compound at 1 µM, sheet "All Tox data"
# [9] = read-out: 10 µM (% DMSO), alamarBlue viability, NCC library compound at 10 µM, sheet "All Tox data"
# [10] = test compound at 2 uM, NCC library screen, relative to quetiapine, read-out: 2 uM (% Quet)
# [11] = test compound at 10 uM, NCC library screen, relative to quetiapine, read-out: 10 uM (% Quet)
# [12] = NCC library screen, relative to quetiapine
# [13] = test compound at 0.4 uM, NCC library screen, relative to quetiapine, read-out: 0.4 uM (% Quet)
# [14] = read-out: 0.1 µM (% DMSO), alamarBlue viability of expanded OPCs, compound at 0.1 µM, sheet All Tox data
# [15] = read-out: 1 µM (% DMSO), alamarBlue viability of expanded OPCs, compound at 1 µM, sheet All Tox data
# [16] = read-out: 10 µM (% DMSO), alamarBlue viability of expanded OPCs, compound at 10 µM, sheet All Tox data
# [17] = 2 uM test compound, relative to quetiapine, read-out: OL differentiation, 2 uM (% Quet)
# [18] = 10 uM test compound, relative to quetiapine, read-out: OL differentiation, 10 uM (% Quet)
# [19] = 0.4 uM test compound, relative to quetiapine, read-out: OL differentiation, 0.4 uM (% Quet)
smiles,measurement,setting,value
CCC1(c2ccc(N)cc2)CCC(=O)NC1=O (stereo not shown) [Aminoglutethimide],0.1 µM (% DMSO),expanded OPCs; [2],94.4 % DMSO
same,1 µM (% DMSO),expanded OPCs; [3],89.6 % DMSO
same,10 µM (% DMSO),expanded OPCs; [4],84.0 % DMSO
same,activation at 2 µM,[1]; [5],-11%
same,activation at 10 µM,[1]; [6],-7.7%
NCC(=O)CCC(=O)O [Aminolevulinic Acid],viability at 0.1 µM,expanded OPCs; [7],96%
same,viability at 1 µM,expanded OPCs; [8],86.7%
same,viability at 10 µM,expanded OPCs; [9],73.4%
same,activation at 2 µM,[1]; [10],5.1%
same,activation at 10 µM,[1]; [11],-16.1%
CCCCc1oc2ccccc2c1C(=O)c1cc(I)c(OCCN(CC)CC)c(I)c1 [Amiodarone],viability at 0.1 µM,expanded OPCs; [7],74.9%
same,viability at 1 µM,expanded OPCs; [8],8.8%
same,viability at 10 µM,expanded OPCs; [9],8.6%
same,activation at 0.08 µM,[1]; [12],44.2%
Nc1c2c(nc3c1CCC3)CCCC2 [Amiridine],0.1 µM (% DMSO),"expanded OPCs; alamarBlue viability of expanded OPCs, compound at 0.1 µM, sheet All Tox data",87.3 % DMSO
same,1 µM (% DMSO),"expanded OPCs; alamarBlue viability of expanded OPCs, compound at 1 µM, sheet All Tox data",86.4 % DMSO
same,10 µM (% DMSO),"expanded OPCs; alamarBlue viability of expanded OPCs, compound at 10 µM, sheet All Tox data",89.5 % DMSO
same,"OL differentiation, 2 uM (% Quet)","[1]; 2 uM test compound, relative to quetiapine",7.6 % Quet
same,"OL differentiation, 10 uM (% Quet)","[1]; 10 uM test compound, relative to quetiapine",34.5 % Quet
CN(C)CCC=C1c2ccccc2CCc2ccccc21 [Amitriptyline],0.1 µM (% DMSO),expanded OPCs; [2],82.0 % DMSO
same,1 µM (% DMSO),expanded OPCs; [3],60.1 % DMSO
same,10 µM (% DMSO),expanded OPCs; [4],18.3 % DMSO
same,activation at 0.4 µM,[1]; [13],-6%
same,activation at 2 µM,[1]; [10],-23.5%
CC(C)c1ccc2oc3nc(N)c(C(=O)O)cc3c(=O)c2c1 [Amlexanox],viability at 0.1 µM,expanded OPCs; [14],84.3%
same,viability at 1 µM,expanded OPCs; [15],88.6%
same,viability at 10 µM,expanded OPCs; [16],91.9%
same,activation at 2 µM,[1]; [17],-11.6%
same,activation at 10 µM,[1]; [18],-20%
CCOC(=O)C1=C(COCCN)NC(C)=C(C(=O)OC)C1c1ccccc1Cl (stereo not shown) [Amlodipine],viability at 0.1 µM,expanded OPCs; [7],69.7%
same,viability at 1 µM,expanded OPCs; [8],22.7%
same,viability at 10 µM,expanded OPCs; [9],8.6%
same,activation at 0.08 µM,[1]; [12],-17.1%
same,activation at 0.4 µM,[1]; [13],-39.6%
Clc1ccc2c(c1)C(N1CCNCC1)=Nc1ccccc1O2 [Amoxapine],viability at 0.1 µM,expanded OPCs; [7],62%
same,viability at 1 µM,expanded OPCs; [8],40%
same,viability at 10 µM,expanded OPCs; [9],19.2%
same,activation at 0.08 µM,[1]; [12],13%
same,activation at 0.4 µM,[1]; [13],-10.8%
CC1(C)S[C@@H]2[C@H](NC(=O)[C@H](N)c3ccc(O)cc3)C(=O)N2[C@H]1C(=O)O [Amoxicillin],0.1 µM (% DMSO),expanded OPCs; [2],93.8 % DMSO
same,1 µM (% DMSO),expanded OPCs; [3],104.4 % DMSO
same,10 µM (% DMSO),expanded OPCs; [4],96.1 % DMSO
same,activation at 2 µM,[1]; [5],17.9%
same,activation at 10 µM,[1]; [6],-7%
CC1(C)S[C@@H]2[C@H](NC(=O)[C@H](N)c3ccccc3)C(=O)N2[C@H]1C(=O)O [Ampicillin],0.1 µM (% DMSO),expanded OPCs; [2],88.7 % DMSO
same,1 µM (% DMSO),expanded OPCs; [3],94.1 % DMSO
same,10 µM (% DMSO),expanded OPCs; [4],94.1 % DMSO
same,activation at 2 µM,[1]; [5],-10.9%
same,activation at 10 µM,[1]; [6],-36.2%
CCOC(=O)OC(C)OC1=C(C(=O)Nc2ccccn2)N(C)S(=O)(=O)c2ccccc21 (stereo not shown) [Ampiroxicam],viability at 0.1 µM,expanded OPCs; [7],97.8%
same,viability at 1 µM,expanded OPCs; [8],82.6%
same,viability at 10 µM,expanded OPCs; [9],90.8%
same,activation at 2 µM,[1]; [10],12.7%
same,activation at 10 µM,[1]; [11],-2%
O=C1CN2Cc3c(ccc(Cl)c3Cl)N=C2N1 [Anagrelide hydrochloride],viability at 0.1 µM,expanded OPCs; [7],93.1%
same,viability at 1 µM,expanded OPCs; [8],90.4%
same,viability at 10 µM,expanded OPCs; [9],81.2%
same,activation at 2 µM,[1]; [17],-7%
same,activation at 10 µM,[1]; [18],-4.5%
CC(C)(C#N)c1cc(Cn2cncn2)cc(C(C)(C)C#N)c1 [Anastrozole],viability at 0.1 µM,expanded OPCs; [7],87.4%
same,viability at 1 µM,expanded OPCs; [8],92.9%
same,viability at 10 µM,expanded OPCs; [9],80.3%
same,activation at 2 µM,[1]; [10],-29.6%
same,activation at 10 µM,[1]; [11],-33%
CC1CNc2c(cccc2S(=O)(=O)N[C@@H](CCCNC(=N)N)C(=O)N2CC[C@@H](C)C[C@@H]2C(=O)O)C1 (stereo partly shown) [Argatroban],viability at 0.1 µM,expanded OPCs; [14],103%
same,viability at 1 µM,expanded OPCs; [15],101%
same,viability at 10 µM,expanded OPCs; [16],93%
same,activation at 2 µM,[1]; [17],0.26%
same,activation at 10 µM,[1]; [18],2.3%
O=C1CCc2ccc(OCCCCN3CCN(c4cccc(Cl)c4Cl)CC3)cc2N1 [Aripiprazole],viability at 0.1 µM,expanded OPCs; [14],88.2%
same,viability at 1 µM,expanded OPCs; [15],86.5%
same,viability at 10 µM,expanded OPCs; [16],11.3%
same,activation at 0.4 µM,[1]; [19],-30.6%
same,activation at 2 µM,[1]; [17],-18.8%
CO[C@H]1O[C@@H]2O[C@@]3(C)CC[C@H]4[C@H](C)CC[C@@H]([C@H]1C)[C@@]24OO3 [Artemethe],0.1 µM (% DMSO),"expanded OPCs; alamarBlue viability, NCC library compound at 0.1 µM, sheet ""All Tox data""",81.3 % DMSO
same,1 µM (% DMSO),"expanded OPCs; alamarBlue viability, NCC library compound at 1 µM, sheet ""All Tox data""",76.5 % DMSO
same,10 µM (% DMSO),"expanded OPCs; alamarBlue viability, NCC library compound at 10 µM, sheet ""All Tox data""",77.8 % DMSO
same,2 uM (% Quet),"[1]; test compound at 2 uM, NCC library screen, relative to quetiapine",-5.4 % Quet
same,10 uM (% Quet),"[1]; test compound at 10 uM, NCC library screen, relative to quetiapine",-21.6 % Quet
C[C@H]1[C@H](OC(=O)CCC(=O)O)O[C@@H]2O[C@@]3(C)CC[C@H]4[C@H](C)CC[C@@H]1[C@@]24OO3 [Artesunate],viability at 0.1 µM,expanded OPCs; [14],93.2%
same,viability at 1 µM,expanded OPCs; [15],101%
same,viability at 10 µM,expanded OPCs; [16],74%
same,activation at 2 µM,[1]; [17],-39.6%
same,activation at 10 µM,[1]; [18],-122%
CC(C)NCC(O)COc1ccc(CC(N)=O)cc1 (stereo not shown) [Atenolol],0.1 µM (% DMSO),expanded OPCs; [2],90.5 % DMSO
same,1 µM (% DMSO),expanded OPCs; [3],105.2 % DMSO
same,10 µM (% DMSO),expanded OPCs; [4],146.2 % DMSO
same,activation at 2 µM,[1]; [10],31.5%
same,activation at 10 µM,[1]; [11],86.2%
CNCC[C@@H](Oc1ccccc1C)c1ccccc1 [Atomoxetine],viability at 0.1 µM,expanded OPCs; [14],87.4%
same,viability at 1 µM,expanded OPCs; [15],74.9%
same,viability at 10 µM,expanded OPCs; [16],33.8%
same,activation at 0.4 µM,[1]; [19],-17.2%
same,activation at 2 µM,[1]; [17],-20.9%
